Laboratory results reported in US6548494B1, “Tricyclic inhibitors of poly(ADP-ribose) polymerases” (Agouron Pharmaceuticals, Inc., priority 1999, dated 2003).
“And” between values parts separate entries of the source, which are not always exact repeats. Equal values may be shown once. Where a name gives a salt, the structure may show the parent alone. Read-outs that look alike come from different tables or passages of the source.

Tests used:
[1] = molecular target: purified PARP protein (Homo sapiens, UniProt P09874); assay: PARP enzyme inhibition assay; format: biochemical
Chain of purified PARP protein (P09874 whole entry): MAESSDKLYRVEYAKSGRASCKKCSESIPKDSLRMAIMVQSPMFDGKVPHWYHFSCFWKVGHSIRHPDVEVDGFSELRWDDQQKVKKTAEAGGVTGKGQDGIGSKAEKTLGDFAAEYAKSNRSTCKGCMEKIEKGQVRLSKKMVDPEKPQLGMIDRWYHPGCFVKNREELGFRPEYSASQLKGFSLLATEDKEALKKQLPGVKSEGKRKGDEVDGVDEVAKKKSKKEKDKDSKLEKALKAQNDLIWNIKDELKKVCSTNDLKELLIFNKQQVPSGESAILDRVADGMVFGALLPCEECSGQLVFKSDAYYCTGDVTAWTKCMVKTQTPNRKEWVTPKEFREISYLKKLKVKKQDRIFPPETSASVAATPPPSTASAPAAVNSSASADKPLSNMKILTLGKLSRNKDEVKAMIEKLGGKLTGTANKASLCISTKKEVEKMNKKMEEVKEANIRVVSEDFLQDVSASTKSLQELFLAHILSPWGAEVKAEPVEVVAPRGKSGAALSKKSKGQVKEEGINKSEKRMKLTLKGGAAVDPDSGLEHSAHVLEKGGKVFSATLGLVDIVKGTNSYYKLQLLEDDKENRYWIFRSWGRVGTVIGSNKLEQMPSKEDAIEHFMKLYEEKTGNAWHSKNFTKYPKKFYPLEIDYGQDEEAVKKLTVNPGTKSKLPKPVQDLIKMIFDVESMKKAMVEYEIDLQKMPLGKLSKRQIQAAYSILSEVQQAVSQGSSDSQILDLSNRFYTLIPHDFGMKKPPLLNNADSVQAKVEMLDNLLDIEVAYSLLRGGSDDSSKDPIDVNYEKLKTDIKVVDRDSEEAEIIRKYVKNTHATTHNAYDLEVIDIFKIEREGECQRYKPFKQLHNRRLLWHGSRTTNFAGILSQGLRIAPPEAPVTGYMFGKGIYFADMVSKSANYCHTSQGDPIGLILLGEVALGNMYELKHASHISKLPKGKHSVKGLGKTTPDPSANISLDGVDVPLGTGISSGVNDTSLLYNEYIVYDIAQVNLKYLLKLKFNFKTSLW

[2] = 20 nM purified PARP (5 nM for tight-binding inhibitors), 500 μM NAD+, 25° C., several values in one cell = repeat determinations, read-out: Inhibition Constant Ki

Row | Structure (SMILES) | melting point | Ki [1, 2] | Ki ([1]; Inhibition Constant Ki (nM)) [nM]
1 | O=Cc1c(-c2ccc(F)cc2)n2c3c(cccc13)C(=O)NCC2 | 268 to 270 °C | – | –
2 | N/N=C(\N)c1c(-c2ccc(F)cc2)n2c3c(cccc13)C(=O)NCC2 (as salt: hydrochloride) [Example 156, 7-Formyl-6-(4-fluorophenyl)-1-oxo-3,4-dihydro-[1,4]diazepino[6,7,1-hi]indole Amidrazone Hydrochloride] | 272 to 274 °C | – | –
3 | O=C1NCCn2c(-c3ccno3)nc3cccc1c32 [Example 13, 1-Isoxazol-5-yl-8,9-dihydro-7H-2,7,9a-triaza-benzo[cd]azulen-6-one] | 226 °C (dec.) | 10.1 nM | –
4 | O=C1NCCn2c(-c3ccnc(Cl)c3)nc3cccc1c32 [Example 15, 1-(2-Chloropyridin-4-yl)-8,9-dihydro-7H-2,7,9a-triaza-benzo[cd]azulen-6-one] | 265 °C (dec.) | 12.1 nM | –
5 | O=C1NCCn2c(-c3cccc(Oc4cccnc4)c3)nc3cccc1c32 [Example 16, 1-[3-(Pyridin-3-yloxy)-phenyl]-8,9-dihydro-7H-2,7,9a-triaza-benzo[cd]azulen-6-one] | 223 to 225 °C | 7.2 nM | –
6 | CC(C)(C)c1nc2cccc3c2n1CCNC3=O [Example 22, 1-tert-Butyl-8,9-dihydro-7H-2,7,9a-triaza-benzo[cd]azulen-6-one] | 246 to 248 °C | 13 nM and 14 nM and 15 nM | –
7 | CC(C)Cc1nc2cccc3c2n1CCNC3=O [Example 23, 1-Isobutyl-8,9-dihydro-7H-2,7,9a-triaza-benzo[cd]azulen-6-one] | 211 to 212 °C | 17.3 nM | –
8 | CN1CCn2c(-c3cccc4ccccc34)nc3cccc(c32)C1=O [Example 27, 7-Methyl-1-naphthalen-1-yl-8,9-dihydro-7H-2,7,9a-triaza-benzo[cd]azulen-6-one] | 126 °C (dec.) | – | –
9 | O=C1NCCn2c(SCc3ccccc3)nc3cccc1c32 [Example 29, 1-Benzylsulfanyl-8,9-dihydro-7H-2,7,9a-triaza-benzo[cd]azulen-6-one] | 189 to 191 °C | 24 nM | –
10 | O=C1NCCn2c(-c3cccc(C4OCCCO4)c3)nc3cccc1c32 [Example 30, 1-(3-[1,3]-Dioxan-2-yl-phenyl)-8,9-dihydro-7H-2,7,9a-triaza-benzo[cd]azulen-6-one] | 247 °C (dec.) | – | –
11 | COC(OC)c1cccc(-c2nc3cccc4c3n2CCNC4=O)c1 [Example 31a, 1-(3-Dimethoxymethyl-phenyl)-8,9-dihydro-7H-2,7,9a-triaza-benzo[cd]azulen-6-one] | 182 to 185 °C | 22 nM | –
12 | O=C1NCCn2c(-c3cccc(CO)c3)nc3cccc1c32 [Example 32a, 1-(3-Hydroxymethyl-phenyl)-8,9-dihydro-7H-2,7,9a-triaza-benzo[cd]azulen-6-one] | 275 to 278 °C | 8.8 nM | –
13 | COc1ccc(-c2cc3cccc4c3n2CCNC4=O)cc1 [Example 35, 6-(4-Methoxyphenyl)-3,4-dihydro-2H-[1,4]diazepino[6,7,1-hi]indol-1-one] | 193 to 195 °C | 8.2 nM | –
14 | O=C1NCCn2c(CCc3ccccc3)cc3cccc1c32 [Example 36, 6-Phenethyl-3,4-dihydro-2H-[-1,4]diazepino[6,7,1-hi]indol-1-one] | 133 to 135 °C | – | 27
15 | O=C1NCCn2c(-c3ccccn3)cc3cccc1c32 [Example 40, 6-Pyridin-2-yl-3,4-dihydro-2H-[1,4]diazepino[6,7,1-hi]indol-1-one] | 173 to 175 °C | 68 nM | –
16 | O=C1NCCn2c(-c3cccc(C4OCCO4)c3)nc3cccc1c32 [Example 55, (3-[1,3]Dioxolan-2-yl-phenyl)-8,9-dihydro-7H-2,7,9a-triaza-benzo[cd]azulen-6-one] | 223 to 225 °C | 10 nM | –
17 | CCOC(OCC)c1ccc(-c2nc3cccc4c3n2CCNC4=O)cc1 [Example 56, 1-(4-Diethoxymethyl-phenyl)-8,9-dihydro-7H-2,7,9a-triaza-benzo[cd]azulen-6-one] | 213 to 215 °C | 32 nM | –
18 | O=C1NCCn2c(-c3cccc(CN4CCCC4)c3)nc3cccc1c32 [Example 60, 1-(3-Pyrrolidin-1-ylmethyl-phenyl)-8,9-dihydro-7H-2,7,9a-triaza-benzo[cd]azulen-6-one] | 92 °C (dec.) | 6.2 nM | –
19 | O=C1NCCn2c(-c3cccc(Oc4cccc(C(F)(F)F)c4)c3)nc3cccc1c32 [Example 61, 1-[3-(3-Trifluoromethyl-phenoxy)-phenyl]-8,9-dihydro-7H-2,7,9a-triaza-benzo[cd]azulen-6-one] | 121 to 122 °C | 6.2 nM | –
20 | O=C1NCCn2c(-c3cccc(Oc4ccc(Cl)cc4)c3)nc3cccc1c32 [Example 62, 1-[3-(4-Chlorophenoxy)-phenyl]-8,9-dihydro-7H-2,7,9a-triaza-benzo[cd]azulen-6-one] | 211 to 212 °C | 6.1 nM | –

Row | Structure (SMILES) | melting point | Ki [1, 2] | Ki ([1]; Inhibition Constant Ki (nM)) [nM]
21 | O=C1NCCn2c(-c3cccc(Oc4ccc(Cl)c(Cl)c4)c3)nc3cccc1c32 [Example 63, 1-[3-(3,4-Dichlorophenoxy)-phenyl]-8,9-dihydro-7H-2,7,9a-triaza-benzo[cd]azulen-6-one] | 252 to 254 °C (dec.) | 13 nM | –
22 | COc1ccc(Oc2cccc(-c3nc4cccc5c4n3CCNC5=O)c2)cc1 [Example 64, 1-[3-(4-Methoxyphenoxy)-phenyl]-8,9-dihydro-7H-2,7,9a-triaza-benzo[cd]azulen-6-one] | 196 to 198 °C | 6.2 nM | –
23 | O=C1NCCn2c(-c3cccc(Oc4cc(Cl)cc(Cl)c4)c3)nc3cccc1c32 [Example 65, 1-[3-(3,5-Dichlorophenoxy)-phenyl]-8,9-dihydro-7H-2,7,9a-triaza-benzo[cd]azulen-6-one] | 258 to 259 °C (dec.) | 11 nM | –
24 | O=C(c1ccccc1)c1cccc(-c2nc3cccc4c3n2CCNC4=O)c1 [Example 66, 1-(3-Benzoylphenyl)-8,9-dihydro-7H-2,7,9a-triaza-benzo[cd]azulen-6-one] | 237 to 238 °C (dec.) | 8.9 nM | –
25 | O=C1NCCn2c(-c3cccc(Cc4ccccc4)c3)nc3cccc1c32 [Example 67, 1-(3-Benzylphenyl)-8,9-dihydro-7H-2,7,9a-triaza-benzo[cd]azulen-6-one] | 205 to 208 °C | 9.3 nM | –
26 | CNCc1ccc(-c2cc3cccc4c3n2CCNC4=O)cc1 [Example 83, 6-(4-Methylaminomethyl-phenyl)-3,4-dihydro-2H-[1,4]diazepino[6,7,1-hi]indol-1-one] | 178 to 180 °C | – | –
27 | O=Cc1ccc(-c2cc3cc(F)cc4c3n2CCNC4=O)cc1 [Example 169, 4-(9-Fluoro-1-oxo-1,2,3,4-tetrahydro-[1,4]diazepino[6,7,1-hi]indol-6-yl)-benzaldehyde] | 212 to 214 °C | – | –
28 | O=C1N[C@@H](COCc2ccccc2)Cn2c(-c3ccc(Cl)cc3)nc3cccc1c32 [Example 237b, (R)-8-Benzyloxymethyl-1-(4-chloro-phenyl)-8,9-dihydro-7H-2,7,9a-triaza-benzo[cd]azulen-6-one] | – | 30 nM | –
29 | CN(C)Cc1ccc(-c2nc3cccc4c3n2C[C@H](CO)NC4=O)cc1 [Example 238, (R)-1-(4-Dimethylaminomethyl-phenyl)-8-hydroxymethyl-8,9-dihydro-7H-2,7,9a-triaza-benzo[cd]azulen-6-one] | – | 7.3 nM | –
30 | O=C1N[C@@H](COCc2ccccc2)Cn2c(-c3ccc(CO)cc3)nc3cccc1c32 [Example 238a, (R)-8-Benzyloxymethyl-1-(4-hydroxymethyl-phenyl)-8,9-dihydro-7H-2,7,9a-triaza-benzo[cd]azulen-6-one] | – | 30.7 nM | –
31 | CN(CCc1ccccc1)Cc1ccc(-c2nc3cccc4c3n2C[C@H](CO)NC4=O)cc1 [Example 239, (R)-8-Hydroxymethyl-1-{4-[(methyl-phenethyl-amino)-methyl]-phenyl}-8,9-dihydro-7H-2,7,9a-triaza-benzo[cd]azulen-6-one] | – | 7.8 nM | –
32 | CNCc1ccc(-c2nc3cccc4c3n2C[C@H](CO)NC4=O)cc1 [Example 240, (R)-8-Hydroxymethyl-1-(4-methylaminomethyl-phenyl)-8,9-dihydro-7H-2,7,9a-triaza-benzo[cd]azulen-6-one] | – | 4.2 nM and 4.5 nM | –
33 | O=C1N[C@@H](CO)Cn2c(-c3ccc(CN4CCCC4)cc3)nc3cccc1c32 [Example 241, (R)-8-Hydroxymethyl-1-(4-pyrrolidin-1-ylmethyl-phenyl)-8,9-dihydro-7H-2,7,9a-triaza-benzo[cd]azulen-6-one] | – | 6.8 nM | –
34 | N#CCc1ccc(-c2nc3cccc4c3n2CCNC4=O)cc1 [Example 242, [4-(6-oxo-6,7,8,9-Tetrahydro-2,7,9a-triaza-benzo[cd]azulen-1-yl)-phenyl]-acetonitrile] | – | 3.4 nM | –
35 | Cc1ccc(C)n1Cc1ccc(-c2nc3cccc4c3n2CCNC4=O)cc1 [Example 244, 1-[4-(2,5-Dimethyl-pyrrol-1-ylmethyl)-phenyl]-8,9-dihydro-7H-2,7,9a-triaza-benzo[cd]azulen-6-one] | – | 14 nM | –
36 | CC(O)c1ccc(-c2nc3cccc4c3n2CCNC4=O)cc1 (stereo not drawn) [Example 245a, 1-[4-(1-Hydroxy-ethyl)-phenyl]-8,9-dihydro-7H-2,7,9a-triaza-benzo[cd]azulen-6-one] | – | 5.2 nM and 5.3 nM | –
37 | O=C1NCCn2c(-c3ccc(C(Cc4ccccc4)N4CCCC4)cc3)nc3cccc1c32 (stereo not drawn) [Example 247, 1-[4-(2-Phenyl-1-pyrrolidin-1-yl-ethyl)-phenyl]-8,9-dihydro-7H-2,7,9a-triaza-benzo[cd]azulen-6-one] | – | 5.4 nM | –
38 | O=C1NCCn2c(-c3ccc(C(O)Cc4ccccc4)cc3)nc3cccc1c32 (stereo not drawn) [Example 247a, 1-[4-(1-Hydroxy-2-phenyl-ethyl)-phenyl]-8,9-dihydro-7H-2,7,9a-triaza-benzo[cd]azulen-6-one] | – | 10 nM | –
39 | O=C1NCCn2c(-c3ccc(/C=C/c4ccccc4)cc3)nc3cccc1c32 [Example 247c, 1-[4-((E)-Styryl)-phenyl]-8,9-dihydro-7H-2,7,9a-triaza-benzo[cd]azulen-6-one] | – | 16 nM | –
